Measurements as given in patent US6133443A, “Optically active 1,4-dihydropyridine derivatives and process for the preparation thereof” (Mercian Corporation, priority 1996, dated 2000).

experiment: Test for solubility in water (deionized water, stirring 3 minutes, presence or absence of insoluble matter); details: not given

SMILES	solubility at 0.05 h
COC(=O)C1=C(C)NC(C)=C(C(=O)OCCC[n+]2ccc(N(C)C)cc2)[C@H]1c1cccc([N+](=O)[O-])c1 [Example 9, 3-(4-dimethylaminopyridinium)propyl (4S)-1,4-dihydro-2,6-dimethyl-5-methoxycarbonyl-4-(3-nitrophenyl)-pyridine-3-carboxylate iodide]	≥ 1000 µg/mL
COC(=O)C1=C(C)NC(C)=C(C(=O)OCc2cccc[n+]2C)[C@H]1c1cccc([N+](=O)[O-])c1 [Example 11, 3-(1-methyl-2-pyridinium)methyl (4S)-1,4-dihydro-2,6-dimethyl-5-methoxycarbonyl-4-(3-nitrophenyl)-pyridine-3-carboxylate iodide]	≥ 1000 µg/mL
COC(=O)C1=C(C)NC(C)=C(C(=O)OCCC[n+]2cccc(C(N)=O)c2)[C@H]1c1cccc([N+](=O)[O-])c1 [Example 10, 3-(3-carbamoylpyridinium)propyl (4S)-1,4-dihydro-2,6-dimethyl-5-methoxycarbonyl-4-(3-nitrophenyl)-pyridine-3-carboxylate iodide]	≥ 1000 µg/mL
COC(=O)C1=C(C)NC(C)=C(C(=O)OCCC[n+]2cccc(C#N)c2)[C@H]1c1cccc([N+](=O)[O-])c1 [Example 8, 3-(3-cyanopyridinium)propyl (4S)-1,4-dihydro-2,6-dimethyl-5-methoxycarbonyl-4-(3-nitrophenyl)-pyridine-3-carboxylate iodide]	≥ 1000 µg/mL
COC(=O)C1=C(C)NC(C)=C(C(=O)OCCC[n+]2ccn(C)c2)[C@H]1c1cccc([N+](=O)[O-])c1 [Example 6, 3-(1-methylimidazolium)propyl (4S)-1,4-dihydro-2,6-dimethyl-5-methoxycarbonyl-4-(3-nitrophenyl)-pyridine-3-carboxylate iodide]	≥ 1000 µg/mL
COC(=O)C1=C(C)NC(C)=C(C(=O)OCCC[n+]2cccc(C(=O)OC)c2)[C@H]1c1cccc([N+](=O)[O-])c1 [Example 7, 3-(3-methoxycarbonylpyridinium)propyl (4S)-1,4-dihydro-2,6-dimethyl-5-methoxycarbonyl-4-(3-nitrophenyl)-pyridine-3-carboxylate iodide]	≥ 1000 µg/mL
COC(=O)C1=C(C)NC(C)=C(C(=O)OCCCc2ccc[n+](C)c2)[C@H]1c1cccc([N+](=O)[O-])c1 [Example 12, 3-(1-methyl-3-pyridinium)propyl (4S)-1,4-dihydro-2,6-dimethyl-5-methoxycarbonyl-4-(3-nitrophenyl)-pyridine-3-carboxylate iodide]	≥ 1000 µg/mL

experiment: physchem; details: deionized water
Experimental: The measurements were performed by mixing deionized water with a compound to be tested, subsequently stirring for 3 minutes using a electromagnetic vibrating stirrer, and determining a critical value (solubility) based on presence or absence of insoluble matter.

SMILES	solubility at 0.05 h
COC(=O)C1=C(C)NC(C)=C(C(=O)OCCC[n+]2ccccc2)[C@H]1c1cccc([N+](=O)[O-])c1 [Example 2, 3-pyridiniumpropyl (4S)-1,4-dihydro-2,6-dimethyl-5-methoxycarbonyl-4-(3-nitrophenyl)-pyridine-3-carboxylate iodide]	≥ 1000 µg/mL
COC(=O)C1=C(C)NC(C)=C(C(=O)OCCC[n+]2ccncc2)[C@H]1c1cccc([N+](=O)[O-])c1 [Example 3, 3-pyraziniumpropyl (4S)-1,4-dihydro-2,6-dimethyl-5-methoxycarbonyl-4-(3-nitrophenyl)-pyridine-3-carboxylate iodide]	≥ 1000 µg/mL
COC(=O)C1=C(C)NC(C)=C(C(=O)OCCC[n+]2ccsc2)[C@H]1c1cccc([N+](=O)[O-])c1 [Example 4, 3-thiazoliumpropyl (4S)-1,4-dihydro-2,6-dimethyl-5-methoxycarbonyl-4-(3-nitrophenyl)-pyridine-3-carboxylate iodide]	≥ 1000 µg/mL
COC(=O)C1=C(C)NC(C)=C(C(=O)OCCC[n+]2ccccn2)[C@H]1c1cccc([N+](=O)[O-])c1 [Example 5, 3-pyridaziniumpropyl (4S)-1,4-dihydro-2,6-dimethyl-5-methoxycarbonyl-4-(3-nitrophenyl)-pyridine-3-carboxylate iodide]	≥ 1000 µg/mL
